Assay results from patent US4684664A, “Derivatives of β-(4-isocyano-1,2,3,4-diepoxycyclopentyl) acrylic acid” (Kureha Kagaku Kogyo Kabushiki Kaisha, priority 1984, dated 1987).

Assays:
Format in all cases: cell-based
[1] = tested on: Staphylococcus aureus FDA 209PJc-1; assay: Antibacterial activity, agar-dilution MIC, organism No. 1; conditions: Staphylococcus aureus, FDA209PJC1; Organism No. 1, bouillon-agar; read-out: Minimum Inhibitory Concentration
Outline: (§1)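 Endpoint: MIC in μg/ml of culture medium. Method: agar dilution. Medium: bouillon agar.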

[2] = tested on: Streptococcus pyogenes Cook; assay: Antibacterial activity, agar-dilution MIC, organism No. 4; conditions: Streptococcus pyogenes; Organism No. 4, bouillon-agar; read-out: Minimum Inhibitory Concentration
Outline: as §1

[3] = tested on: Staphylococcus aureus MS 353; assay: Antibacterial activity, agar-dilution MIC, organism No. 3; conditions: Staphylococcus aureus, MS353; Organism No. 3, bouillon-agar; read-out: Minimum Inhibitory Concentration
Outline: as §1

[4] = tested on: Bacillus subtilis ATCC 6633; assay: Antibacterial activity, agar-dilution MIC, organism No. 14; conditions: Bacillus subtilis, ATCC6633; Organism No. 14, bouillon-agar; read-out: Minimum Inhibitory Concentration
Outline: as §1

[5] = tested on: Enterobacter cloacae 963; assay: Antibacterial activity, agar-dilution MIC, organism No. 24; conditions: Enterobacter cloacae, 963; Organism No. 24, bouillon-agar; read-out: Minimum Inhibitory Concentration
Outline: as §1

[6] = tested on: Candida albicans IAM 4905; assay: Antifungal activity, agar-dilution MIC, organism No. 29; conditions: Candida albicans, IAM4905; Organism No. 29, bouillon-agar; read-out: Minimum Inhibitory Concentration
Outline: as §1

[7] = tested on: Salmonella typhi 901; assay: Antibacterial activity, agar-dilution MIC, organism No. 9; conditions: Salmonella enterica, TYPHI, read-out: Minimum Inhibitory Concentration
Outline: as §1

[8] = tested on: Mycoplasma pneumoniae IID817; assay: Antimycoplasmal activity, MIC by phenol red colour change, organism No. 28; conditions: Mycoplasma, IID817; Organism No. 28, PPLO broth + 1% glucose, 37° C.; read-out: Minimum Inhibitory Concentration (MIC)
Experimental: Mycoplasma pneumoniae IID817 was used as the test microorganism in a culture medium prepared by adding 1% of glucose to "PPLO broth (manufactured by Difco Co.) liquid culture medium" at 37° C. with phenol red as an indicator, thereby culturing the test microorganism.

[9] = tested on: Streptococcus pyogenes IFO 3340; assay: Antibacterial activity, agar-dilution MIC, organism No. 26; conditions: Streptococcus pyogenes, IFO3340; Organism No. 26, bouillon-agar; read-out: Minimum Inhibitory Concentration
Outline: as §1

[10] = tested on: Proteus morganii IFO 3848; assay: Antibacterial activity, agar-dilution MIC, organism No. 18; conditions: Morganella morganii, IFO3848; Organism No. 18, bouillon-agar; read-out: Minimum Inhibitory Concentration
Outline: as §1

[11] = tested on: Proteus vulgaris HX-19; assay: Antibacterial activity, agar-dilution MIC, organism No. 21; conditions: Proteus vulgaris, HX19; Organism No. 21, bouillon-agar; read-out: Minimum Inhibitory Concentration
Outline: as §1

[12] = tested on: Staphylococcus aureus Terajima; assay: Antibacterial activity, agar-dilution MIC, organism No. 2; conditions: Staphylococcus aureus; Organism No. 2, bouillon-agar; read-out: Minimum Inhibitory Concentration
Outline: as §1

[13] = tested on: Proteus mirabilis IFO 3849; assay: Antibacterial activity, agar-dilution MIC, organism No. 19; conditions: Proteus mirabilis, IFO3849; Organism No. 19, bouillon-agar; read-out: Minimum Inhibitory Concentration
Outline: as §1

[14] = tested on: Serratia marcescens IAM 1184; assay: Antibacterial activity, agar-dilution MIC, organism No. 13; conditions: Serratia marcescens, IAM1184; Organism No. 13, bouillon-agar; read-out: Minimum Inhibitory Concentration
Outline: as §1

[15] = tested on: Proteus vulgaris OX-19; assay: Antibacterial activity, agar-dilution MIC, organism No. 20; conditions: Proteus vulgaris, OX19; Organism No. 20, bouillon-agar; read-out: Minimum Inhibitory Concentration
Outline: as §1

[16] = tested on: Micrococcus luteus ATCC 9341; assay: Antibacterial activity, agar-dilution MIC, organism No. 25; conditions: Micrococcus luteus, ATCC9341; Organism No. 25, bouillon-agar; read-out: Minimum Inhibitory Concentration
Outline: as §1

[17] = tested on: Aspergillus niger IFO 6342; assay: Antifungal activity, agar-dilution MIC, organism No. 30; conditions: Aspergillus niger, IFO6342; Organism No. 30, bouillon-agar; read-out: Minimum Inhibitory Concentration
Outline: as §1

[18] = tested on: Streptococcus faecium IFO 3826; assay: Antibacterial activity, agar-dilution MIC, organism No. 27; conditions: Enterococcus faecium, IFO3826; Organism No. 27, bouillon-agar; read-out: Minimum Inhibitory Concentration
Outline: as §1

[19] = tested on: Enterobacter aerogenes ATCC 13048; assay: Antibacterial activity, agar-dilution MIC, organism No. 23; conditions: Klebsiella aerogenes, ATCC13048; Organism No. 23, bouillon-agar; read-out: Minimum Inhibitory Concentration
Outline: as §1

[20] = tested on: Salmonella paratyphi-A 1015; assay: Antibacterial activity, agar-dilution MIC, organism No. 10; conditions: Salmonella enterica, PARATYPHI, read-out: Minimum Inhibitory Concentration
Outline: as §1

[21] = tested on: Pseudomonas aeruginosa IFO 3445; assay: Antibacterial activity, agar-dilution MIC, organism No. 15; conditions: Pseudomonas aeruginosa, IFO3445; Organism No. 15, bouillon-agar; read-out: Minimum Inhibitory Concentration
Outline: as §1

[22] = tested on: Salmonella typhimurium IID 971; assay: Antibacterial activity, agar-dilution MIC, organism No. 8; conditions: Salmonella enterica; Organism No. 8, bouillon-agar; read-out: Minimum Inhibitory Concentration
Outline: as §1

[23] = tested on: Salmonella shottmuelleri 8006; assay: Antibacterial activity, agar-dilution MIC, organism No. 11; conditions: Salmonella, 8006; Organism No. 11, bouillon-agar; read-out: Minimum Inhibitory Concentration
Outline: as §1

[24] = tested on: Pseudomonas aeruginosa PAO 1; assay: Antibacterial activity, agar-dilution MIC, organism No. 17; conditions: Pseudomonas aeruginosa, PAO1; Organism No. 17, bouillon-agar; read-out: Minimum Inhibitory Concentration
Outline: as §1

[25] = tested on: Salmonella enteritidis G 14; assay: Antibacterial activity, agar-dilution MIC, organism No. 12; conditions: Salmonella enterica, ENTERITIDIS; Organism No. 12, bouillon-agar; read-out: Minimum Inhibitory Concentration
Outline: as §1

[26] = tested on: Proteus rettgeri IFO 3850; assay: Antibacterial activity, agar-dilution MIC, organism No. 22; conditions: Providencia rettgeri, IFO3850; Organism No. 22, bouillon-agar; read-out: Minimum Inhibitory Concentration
Outline: as §1

[27] = tested on: Pseudomonas aeruginosa NCTC 10490; assay: Antibacterial activity, agar-dilution MIC, organism No. 16; conditions: Pseudomonas aeruginosa, NCTC10490; Organism No. 16, bouillon-agar; read-out: Minimum Inhibitory Concentration
Outline: as §1

[28] = tested on: Klebsiella pneumoniae PCI-602; assay: Antibacterial activity, agar-dilution MIC, organism No. 7; conditions: Klebsiella pneumoniae, PCI602; Organism No. 7, bouillon-agar; read-out: Minimum Inhibitory Concentration
Outline: as §1

[29] = tested on: Escherichia coli NIHJ-JC-2; assay: Antibacterial activity, agar-dilution MIC, organism No. 5; conditions: Escherichia coli, NIHJJC2; Organism No. 5, bouillon-agar; read-out: Minimum Inhibitory Concentration
Outline: as §1

[30] = tested on: Escherichia coli K12 C600 IAM 1264; assay: Antibacterial activity, agar-dilution MIC, organism No. 6; conditions: Escherichia coli, IAM1264; Organism No. 6, bouillon-agar; read-out: Minimum Inhibitory Concentration
Outline: as §1

Measured: MIC

[C-]#[N+]C12CC3(/C=C/C(=O)OCC(=O)c4ccc(Br)cc4)OC3C1O2 (stereo not drawn) [Compound No. 4, p-bromophenacylβ-substituted acrylate]
6.25 µg/mL: [9] | [17] | [22] | [28] | [29]
12.5 µg/mL: [2] | [4] | [18]
1.56 µg/mL: [3] | [6]
> 100 µg/mL: [14] | [21] | [24] | [27]
> 200 µg/mL: [13]
3.13 µg/mL: [7] | [25]
0.78 µg/mL: [12]
0.4 µg/mL: [1]
0.39 µg/mL: [11] | [15]
100 µg/mL: [10] | [19] | [26]
0.2 µg/mL: [5]
< 0.05 µg/mL: all other assays above

[C-]#[N+]C12CC3(/C=C/C(=O)ON4C(=O)CCC4=O)OC3C1O2 (stereo not drawn) [Compound No. 9]
6.25 µg/mL: [8]
> 200 µg/mL: [5] | [19] | [21] | [24] | [26] | [27]
100 µg/mL: [2] | [9]
200 µg/mL: [4] | [13] | [14] | [15] | [28]
25 µg/mL: [11] | [16]
> 100 µg/mL: [6] | [17]
50 µg/mL: all other assays above

[C-]#[N+]C12CC3(/C=C/C(=O)OCc4cc([N+](=O)[O-])ccc4OC)OC3C1O2 (stereo not drawn) [Compound No. 16]
200 µg/mL: [2] | [9] | [29] | [30]
25 µg/mL: [4]
6.25 µg/mL: [1] | [3] | [8] | [12] | [17] | [18]
50 µg/mL: [7] | [15] | [20] | [23] | [28]
12.5 µg/mL: [10]
100 µg/mL: [14] | [26]
3.13 µg/mL: [6] | [11]
0.1 µg/mL: [16]
> 200 µg/mL: all other assays above

[C-]#[N+]C12CC3(/C=C/C(N)=O)OC3C1O2 (stereo not drawn) [Compound No. 19]
> 200 µg/mL: [27]
100 µg/mL: [2] | [18] | [19] | [21]
3.13 µg/mL: [10] | [15] | [25]
50 µg/mL: [4] | [13] | [14]
200 µg/mL: [24]
25 µg/mL: [12] | [16]
< 0.2 µg/mL: [8]
12.5 µg/mL: [6] | [22] | [23] | [28]
1.56 µg/mL: [7] | [11]
6.25 µg/mL: all other assays above

[C-]#[N+]C12CC3(/C=C/C(=O)OCC(=O)c4ccc(Cl)cc4)OC3C1O2 (stereo not drawn) [compound 5]
> 100 µg/mL: [14] | [21] | [24] | [27]
0.05 µg/mL: [1]
3.13 µg/mL: [7] | [25]
12.5 µg/mL: [2] | [4] | [18]
0.78 µg/mL: [3] | [12]
0.1 µg/mL: [5]
0.39 µg/mL: [11] | [15]
100 µg/mL: [10] | [13] | [19] | [26]
1.56 µg/mL: [6] | [9]
6.25 µg/mL: [17] | [22] | [28] | [29]
< 0.05 µg/mL: all other assays above

[C-]#[N+]C12CC3(/C=C/C(=O)OCC(=O)c4ccc(C)cc4)OC3C1O2 (stereo not drawn) [compound 6]
25 µg/mL: [12] | [18]
3.13 µg/mL: [17]
< 100 µg/mL: [9]
100 µg/mL: [4]
0.78 µg/mL: [3]
0.8 µg/mL: [6]
50 µg/mL: [7] | [23] | [28]
0.2 µg/mL: [11]
< 0.2 µg/mL: [8]
12.5 µg/mL: [10]
0.39 µg/mL: [1] | [16]
1.56 µg/mL: [15]
> 100 µg/mL: all other assays above

[C-]#[N+]C12CC3(/C=C/C(=O)OCC(=O)c4cccc(OC)c4)OC3C1O2 (stereo not drawn) [compound 7]
> 100 µg/mL: [5] | [19] | [21] | [24] | [26] | [27]
6.25 µg/mL: [4] | [7] | [12] | [18] | [23]
< 0.2 µg/mL: [8]
0.39 µg/mL: [1] | [3] | [11] | [16]
25 µg/mL: [14] | [22] | [29]
1.56 µg/mL: [6] | [15]
3.13 µg/mL: [17] | [28]
12.5 µg/mL: all other assays above
